One data set deals with T1, apomyoglobin (Physeter macrocephalus, UniProt P02185).
T1 construct: purchased
Description: Hydrolysis of p-nitrophenyl alkanoates catalysed by apomyoglobin (absorbance at 400 nm). In kind it is biochemical, sperm whale. The settings on record: for k2 /KM (catalytic constant) / k2 /Kun (enhancement over rate in the absence of apomyoglobin) / K2 / kobs: 25° C.; for k2 /KM (catalytic constant) / k2 /Kun (enhancement over rate in the absence of apomyoglobin) / K2: pH 8; for K2: Lineweaver Burk; for kobs: pH 8, 0.05 M TRIS. As to the method: Preparation of Apomylglobin. The heme group was removed from sperm whale metmyoglobin by the acid acetone method of Rossi-Fanelli and coworkers, op. cit., from a commercially available sample which was not purified prior to use.
(§1) Hydrolysis of p-Nitrophenyl Alkanoates. The experimental methods used in the hydrolysis of these esters is exemplified by the hydrolysis of p-nitrophenyl caproate. Kinetic runs were performed with the semisynthetic enzyme, apomyoglobin, in excess of the substrate. All hydrolyses were done in 99.9% aqueous media at 25° C. at pH 8 using 0.05 molar tris(hydroxymethyl)aminomethane(TRIS) as a buffer. Each sample cuvette containing varying concentrations of apomyoglobin (Eo) in 1 ml of 0.05M buffer was allowed to equilibrate at 25° C. in a thermostated cell holder of a spectrophotometer. To this was added 1 microliter of 1.13×10^-2 M p-nitrophenyl caproate in ethanol and the contents thereafter were mixed well. The increase in absorbance at 400 nm arising from the p-nitrophenolate ion was monitored as a function of time until hydrolysis was complete.
(§2) In the absence of apomyoglobin the hydrolysis of a solution of 1.13×10^-5 M of the same ester under the same conditions proceeded with the rate constant of 2.7×10^-5 sec^-1. The enhancement achieved with the semisynthetic enzyme is therefore 1800.
Where the same type of experiment yielded a decrease in catalysis rate in those instances the deacylation may become rate limiting. Some results of ester hydrolysis catalyzed by apomyoglobin are summarized in Table 2, where k2 /kM is often referred to as the "catalytic constant," and kun is the hydrolytic rate constant in the absence of apomyoglobin.

Data set [1] has as its system apomyoglobin (denatured, 8 molar urea). In words: Hydrolysis of p-nitrophenyl acetate with apomyoglobin denatured in 8 molar urea. Format: biochemical, sperm whale. The settings on record: after 150 seconds, apomyoglobin solution also 8 molar in urea. As to the method:
To ascertain that our remarkable catalytic rates result from the active site only of the empty heme pocket or cavity the following experiments were performed. In the first experiment reconstituted myoglobin was prepared from apomyoglobin and hemin, and the hydrolysis of p-nitrophenyl caproate was determined as previously described. […] This eliminates the possibility that periperal lysine and histidine residues catalyze hydrolysis. In the second experiment the rate of hydrolysis of a solution of p-nitrophenyl acetate in buffer containing apomyoglobin, prepared as described above, was compared with the rate of hydrolysis in a similar solution which was also 8 molar in urea to ensure denaturation of apomyoglobin. After 150 seconds the reaction was 98% complete in the first solution, but only 2% complete in the urea-containing solution.

Data set [2] can be described thus: Hydrolysis of the ester in the absence of apomyoglobin (spontaneous rate). In kind it is physicochemical. Particulars: 1.13×10^-5 M ester, 25° C., pH 8, 0.05 M TRIS. As to the method: as §1, §2
Another data set relates to reconstituted myoglobin. In words: Hydrolysis of p-nitrophenyl caproate with reconstituted myoglobin (apomyoglobin and hemin). In kind it is biochemical, sperm whale. Particulars: reconstituted myoglobin from apomyoglobin and hemin. The procedure: as §1
To ascertain that our remarkable catalytic rates result from the active site only of the empty heme pocket or cavity the following experiments were performed. In the first experiment reconstituted myoglobin was prepared from apomyoglobin and hemin, and the hydrolysis of p-nitrophenyl caproate was determined as previously described. […] This eliminates the possibility that periperal lysine and histidine residues catalyze hydrolysis. […]

Data set [3] in a line: Denaturation (stability) of the apoprotein under reaction conditions. Format: physicochemical, sperm whale. As to the method:
The reaction temperature also is dictated by stability of the semisynthetic enzyme. When apoprotein derived from, e.g., sperm whale myoglobin is used, it often is denatured substantially at a temperature in excess of about 40° C., and consequently its use is recommended at a temperature under about 40° C. However, it needs to be emphasized that even where the semisynthetic enzyme is denatured at a higher temperature it can be used so long as its denaturation is slower than hydrolysis, although no reuse may be possible.
Finally, the pH at which the hydrolysis is performed also is dictated by the denaturation properties of the semisynthetic enzyme. For example, where the apoprotein is derived from sperm whale myoglobin a pH range between about 6.5 and about 9 is found to cause little if any denaturation.

T1 sequence (P02185 whole entry): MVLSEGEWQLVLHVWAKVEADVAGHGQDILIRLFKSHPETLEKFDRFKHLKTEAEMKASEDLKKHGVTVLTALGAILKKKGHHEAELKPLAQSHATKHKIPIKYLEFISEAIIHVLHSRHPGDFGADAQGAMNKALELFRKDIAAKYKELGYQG

Take `CCC(=O)Oc1ccc([N+](=O)[O-])cc1`: at apomyoglobin, the “k2 /KM (catalytic constant)” value came to 6.4 M⁻¹ s⁻¹ and the “k2 /Kun (enhancement over rate in the absence of apomyoglobin)” value amounted to 42.

`CC(=O)Oc1ccc([N+](=O)[O-])cc1` [Acetate, p-nitrophenyl acetate]: the “rate of hydrolysis by 5×10^-5 M apomyoglobin versus apomyoglobin first reacted with 5×10^-5 M ester to 95% completion” value at apomyoglobin (1×10^-5 M ester) is “identical”. Moreover, on apomyoglobin, the “k2 /KM (catalytic constant)” value was determined as 13.5 M⁻¹ s⁻¹, the “k2 /Kun (enhancement over rate in the absence of apomyoglobin)” value was 134 and the K2 was 0.0058 s⁻¹. The molecule further came in with a reaction completion at apomyoglobin (after 150 seconds, buffer containing apomyoglobin) of 98%. At apomyoglobin (rate with fresh apomyoglobin compared with pre-reacted apomyoglobin), the “Turnover (k3 versus k2)” value is “k3 is much greater than k2”. This molecule also showed a reaction completion in data set [1] of 2%.

As for `CCCC(=O)Oc1ccc([N+](=O)[O-])cc1` [Butyrate], at apomyoglobin, the “k2 /KM (catalytic constant)” value came out at 26.4 M⁻¹ s⁻¹, the “k2 /Kun (enhancement over rate in the absence of apomyoglobin)” value came out at 127 and the K2 worked out at 0.0038 s⁻¹.

Consider `CCCCCCCCCC(=O)Oc1ccc([N+](=O)[O-])cc1` [Caprate], for which, at apomyoglobin, the “k2 /KM (catalytic constant)” value came out at 49 M⁻¹ s⁻¹, the “k2 /Kun (enhancement over rate in the absence of apomyoglobin)” value came out at 4600 and the K2 was 0.03 s⁻¹.

Regarding `CCCCCC(=O)Oc1ccc([N+](=O)[O-])cc1` [Caproate, p-nitrophenyl caproate], at apomyoglobin, the “k2 /KM (catalytic constant)” value worked out at 67 M⁻¹ s⁻¹. Also, at apomyoglobin, the “k2 /Kun (enhancement over rate in the absence of apomyoglobin)” value is reported as 1800. Also, the kobs is recorded as 1.08 10^-2 sec^-1 at apomyoglobin (Eo 2.11 (10^-5 M) apomyoglobin); 1.84 10^-2 sec^-1 on apomyoglobin (Eo 4.23 (10^-5 M) apomyoglobin); 2.21 10^-2 sec^-1 on apomyoglobin (Eo 6.35 (10^-5 M) apomyoglobin); 2.63 10^-2 sec^-1 at apomyoglobin (Eo 8.46 (10^-5 M) apomyoglobin); 2.83 10^-2 sec^-1 on apomyoglobin (Eo 10.6 (10^-5 M) apomyoglobin). In addition, the K2 on apomyoglobin and at apomyoglobin (listed as p-nitrophenyl caproate) was 0.0493 s⁻¹ each time. In data set [2], the “rate constant of hydrolysis in the absence of apomyoglobin” value worked out at 2.7e-05 s⁻¹. The “hydrolysis rate relative to the spontaneous (uncatalyzed) rate” value in the data set with reconstituted myoglobin is reported as “not more than twice that of the spontaneous (uncatalyzed) rate”.

As for “apoprotein derived from, e.g., sperm whale myoglobin: sperm whale metmyoglobin from which the heme group was removed by the acid acetone method; semisynthetic esterase”, in data set [3], the “temperature above which substantially denatured” value is greater than 40 °C.

For the origin of these results see US4764464A, “Semisynthetic enzymes: apoproteins from heme proteins as hydrolases” (priority 1986, dated 1988).
